Source: PubChem BioAssay (NCI)
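Assay format: 96-well plates, 48-hour exposure. GI50 is the concentration that inhibits growth by half. TGI is the concentration that stops growth completely.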

Assays:
Assay in all cases: inhibition of tumour cell growth, NCI panel, 48 h
786-0 renal = test system: 786-0 renal
A498 renal = test system: A498 renal
A549 NSCLC = test system: A549 NSCLC
ACHN renal = test system: ACHN renal
BT-549 breast = test system: BT-549 breast
CAKI-1 renal = test system: CAKI-1 renal
CCRF-CEM leukemia = test system: CCRF-CEM leukemia
COLO 205 colon = test system: COLO 205 colon
DU-145 prostate = test system: DU-145 prostate
EKVX NSCLC = test system: EKVX NSCLC
HCC-2998 colon = test system: HCC-2998 colon
HCT-116 colon = test system: HCT-116 colon
HCT-15 colon = test system: HCT-15 colon
HL-60(TB) leukemia = test system: HL-60(TB) leukemia
HOP-62 NSCLC = test system: HOP-62 NSCLC
HOP-92 NSCLC = test system: HOP-92 NSCLC
HS 578T breast = test system: HS 578T breast
HT29 colon = test system: HT29 colon
IGROV1 ovarian = test system: IGROV1 ovarian
K-562 leukemia = test system: K-562 leukemia
KM12 colon = test system: KM12 colon
LOX IMVI melanoma = test system: LOX IMVI melanoma
M14 melanoma = test system: M14 melanoma
MALME-3M melanoma = test system: MALME-3M melanoma
MCF7 breast = test system: MCF7 breast
MDA-MB-231 breast = test system: MDA-MB-231 breast
MDA-MB-435 = test system: MDA-MB-435
MDA-MB-468 breast = test system: MDA-MB-468 breast
MOLT-4 leukemia = test system: MOLT-4 leukemia
NCI-H226 lung = test system: NCI-H226 lung
NCI-H23 lung = test system: NCI-H23 lung
NCI-H460 lung = test system: NCI-H460 lung
NCI-H522 lung = test system: NCI-H522 lung
NCI/ADR-RES ovarian = test system: NCI/ADR-RES ovarian
OVCAR-3 ovarian = test system: OVCAR-3 ovarian
OVCAR-4 ovarian = test system: OVCAR-4 ovarian
OVCAR-5 ovarian = test system: OVCAR-5 ovarian
OVCAR-8 ovarian = test system: OVCAR-8 ovarian
PC-3 prostate = test system: PC-3 prostate
RPMI-8226 leukemia = test system: RPMI-8226 leukemia
RXF 393 renal = test system: RXF 393 renal
SF-268 CNS = test system: SF-268 CNS
SF-295 CNS = test system: SF-295 CNS
SF-539 CNS = test system: SF-539 CNS
SK-MEL-2 melanoma = test system: SK-MEL-2 melanoma
SK-MEL-28 melanoma = test system: SK-MEL-28 melanoma
SK-MEL-5 melanoma = test system: SK-MEL-5 melanoma
SK-OV-3 ovarian = test system: SK-OV-3 ovarian
SN12C renal = test system: SN12C renal
SNB-19 CNS = test system: SNB-19 CNS
SNB-75 CNS = test system: SNB-75 CNS
SR leukemia = test system: SR leukemia
SW-620 colon = test system: SW-620 colon
T-47D breast = test system: T-47D breast
TK-10 renal = test system: TK-10 renal
U251 CNS = test system: U251 CNS
UACC-257 melanoma = test system: UACC-257 melanoma
UACC-62 melanoma = test system: UACC-62 melanoma
UO-31 renal = test system: UO-31 renal

SMILES: Brc1ccc(N/N=C/c2c[nH]c3ccccc23)nc1
- GI50 (786-0 renal): 13.2 µM
- TGI (786-0 renal): > 100 µM
- GI50 (A498 renal): 35.2 µM
- TGI (A498 renal): > 100 µM
- GI50 (A549 NSCLC): 12.6 µM
- TGI (A549 NSCLC): > 100 µM
- GI50 (ACHN renal): 11.6 µM
- TGI (ACHN renal): > 100 µM
- GI50 (BT-549 breast): 0.17 µM
- TGI (BT-549 breast): > 100 µM
- GI50 (CAKI-1 renal): 4.35 µM
- TGI (CAKI-1 renal): > 100 µM
- GI50 (CCRF-CEM leukemia): 0.839 µM
- TGI (CCRF-CEM leukemia): > 100 µM
- GI50 (COLO 205 colon): > 100 µM
- TGI (COLO 205 colon): > 100 µM
- GI50 (DU-145 prostate): 20.5 µM
- TGI (DU-145 prostate): > 100 µM
- GI50 (EKVX NSCLC): 4.44 µM
- TGI (EKVX NSCLC): > 100 µM
- GI50 (HCC-2998 colon): 9.35 µM
- TGI (HCC-2998 colon): > 100 µM
- GI50 (HCT-116 colon): 13.2 µM
- TGI (HCT-116 colon): > 100 µM
- GI50 (HCT-15 colon): 9.19 µM
- TGI (HCT-15 colon): > 100 µM
- GI50 (HL-60(TB) leukemia): 2.81 µM
- TGI (HL-60(TB) leukemia): > 100 µM
- GI50 (HOP-62 NSCLC): 11 µM
- TGI (HOP-62 NSCLC): 59.3 µM
- GI50 (HOP-92 NSCLC): 6.66 µM
- TGI (HOP-92 NSCLC): 57.6 µM
- GI50 (HS 578T breast): 7.45 µM
- TGI (HS 578T breast): > 100 µM
- GI50 (HT29 colon): 29.4 µM
- TGI (HT29 colon): > 100 µM
- GI50 (IGROV1 ovarian): 1.63 µM
- TGI (IGROV1 ovarian): > 100 µM
- GI50 (K-562 leukemia): 4.05 µM
- TGI (K-562 leukemia): > 100 µM
- GI50 (KM12 colon): 3.68 µM
- TGI (KM12 colon): > 100 µM
- GI50 (LOX IMVI melanoma): 6.47 µM
- TGI (LOX IMVI melanoma): > 100 µM
- GI50 (M14 melanoma): 78.5 µM
- TGI (M14 melanoma): > 100 µM
- GI50 (MALME-3M melanoma): > 100 µM
- TGI (MALME-3M melanoma): > 100 µM
- GI50 (MCF7 breast): 2.43 µM
- TGI (MCF7 breast): > 100 µM
- GI50 (MDA-MB-231 breast): 2.2 µM
- TGI (MDA-MB-231 breast): 8.47 µM
- GI50 (MDA-MB-435): 79.4 µM
- TGI (MDA-MB-435): > 100 µM
- GI50 (MDA-MB-468 breast): 1.88 µM
- TGI (MDA-MB-468 breast): 6.1 µM
- GI50 (MOLT-4 leukemia): 2.67 µM
- TGI (MOLT-4 leukemia): > 100 µM
- GI50 (NCI-H226 lung): 3.78 µM
- TGI (NCI-H226 lung): > 100 µM
- GI50 (NCI-H23 lung): > 100 µM
- TGI (NCI-H23 lung): > 100 µM
- GI50 (NCI-H460 lung): 14.1 µM
- TGI (NCI-H460 lung): > 100 µM
- GI50 (NCI-H522 lung): 2.53 µM
- TGI (NCI-H522 lung): 28 µM
- GI50 (NCI/ADR-RES ovarian): 7.03 µM
- TGI (NCI/ADR-RES ovarian): > 100 µM
- GI50 (OVCAR-3 ovarian): 8.63 µM
- TGI (OVCAR-3 ovarian): > 100 µM
- GI50 (OVCAR-4 ovarian): 77.9 µM
- TGI (OVCAR-4 ovarian): > 100 µM
- GI50 (OVCAR-5 ovarian): > 100 µM
- TGI (OVCAR-5 ovarian): > 100 µM
- GI50 (OVCAR-8 ovarian): 26.3 µM
- TGI (OVCAR-8 ovarian): > 100 µM
- GI50 (PC-3 prostate): 4.83 µM
- TGI (PC-3 prostate): > 100 µM
- GI50 (RPMI-8226 leukemia): 3.07 µM
- TGI (RPMI-8226 leukemia): > 100 µM
- GI50 (RXF 393 renal): 2.5 µM
- TGI (RXF 393 renal): 80.9 µM
- GI50 (SF-268 CNS): 4.15 µM
- TGI (SF-268 CNS): > 100 µM
- GI50 (SF-295 CNS): 19.1 µM
- TGI (SF-295 CNS): > 100 µM
- GI50 (SF-539 CNS): 4.7 µM
- TGI (SF-539 CNS): > 100 µM
- GI50 (SK-MEL-2 melanoma): > 100 µM
- TGI (SK-MEL-2 melanoma): > 100 µM
- GI50 (SK-MEL-28 melanoma): > 100 µM
- TGI (SK-MEL-28 melanoma): > 100 µM
- GI50 (SK-MEL-5 melanoma): 25.6 µM
- TGI (SK-MEL-5 melanoma): > 100 µM
- GI50 (SK-OV-3 ovarian): 56.2 µM
- TGI (SK-OV-3 ovarian): > 100 µM
- GI50 (SN12C renal): 2.28 µM
- TGI (SN12C renal): > 100 µM
- GI50 (SNB-19 CNS): 11.4 µM
- TGI (SNB-19 CNS): 46.4 µM
- GI50 (SNB-75 CNS): 0.385 µM
- TGI (SNB-75 CNS): 97.9 µM
- GI50 (SR leukemia): 2.28 µM
- TGI (SR leukemia): > 100 µM
- GI50 (SW-620 colon): 76 µM
- TGI (SW-620 colon): > 100 µM
- GI50 (T-47D breast): 3.97 µM
- TGI (T-47D breast): > 100 µM
- GI50 (TK-10 renal): 48 µM
- TGI (TK-10 renal): > 100 µM
- GI50 (U251 CNS): 21 µM
- TGI (U251 CNS): > 100 µM
- GI50 (UACC-257 melanoma): > 100 µM
- TGI (UACC-257 melanoma): > 100 µM
- GI50 (UACC-62 melanoma): 37.3 µM
- TGI (UACC-62 melanoma): > 100 µM
- GI50 (UO-31 renal): 1.46 µM
- TGI (UO-31 renal): > 100 µM
